Data: patent US11944624B2, “Peptide and small molecule agonists of EphA and their uses” (CASE WESTERN RESERVE UNIVERSITY, priority 2017, dated 2024)
“Also recorded” adds a separate entry of the source.

Legend:
[1] = molecular target: T1, endogenous EphB4 (Homo sapiens, UniProt P54760); assay: Endogenous EphB4 activation in HEK 293 vector control cells; format: cell-based
T1 construct: host or cells: HEK 293 (vector control)
T1 sequence (P54760 16-987): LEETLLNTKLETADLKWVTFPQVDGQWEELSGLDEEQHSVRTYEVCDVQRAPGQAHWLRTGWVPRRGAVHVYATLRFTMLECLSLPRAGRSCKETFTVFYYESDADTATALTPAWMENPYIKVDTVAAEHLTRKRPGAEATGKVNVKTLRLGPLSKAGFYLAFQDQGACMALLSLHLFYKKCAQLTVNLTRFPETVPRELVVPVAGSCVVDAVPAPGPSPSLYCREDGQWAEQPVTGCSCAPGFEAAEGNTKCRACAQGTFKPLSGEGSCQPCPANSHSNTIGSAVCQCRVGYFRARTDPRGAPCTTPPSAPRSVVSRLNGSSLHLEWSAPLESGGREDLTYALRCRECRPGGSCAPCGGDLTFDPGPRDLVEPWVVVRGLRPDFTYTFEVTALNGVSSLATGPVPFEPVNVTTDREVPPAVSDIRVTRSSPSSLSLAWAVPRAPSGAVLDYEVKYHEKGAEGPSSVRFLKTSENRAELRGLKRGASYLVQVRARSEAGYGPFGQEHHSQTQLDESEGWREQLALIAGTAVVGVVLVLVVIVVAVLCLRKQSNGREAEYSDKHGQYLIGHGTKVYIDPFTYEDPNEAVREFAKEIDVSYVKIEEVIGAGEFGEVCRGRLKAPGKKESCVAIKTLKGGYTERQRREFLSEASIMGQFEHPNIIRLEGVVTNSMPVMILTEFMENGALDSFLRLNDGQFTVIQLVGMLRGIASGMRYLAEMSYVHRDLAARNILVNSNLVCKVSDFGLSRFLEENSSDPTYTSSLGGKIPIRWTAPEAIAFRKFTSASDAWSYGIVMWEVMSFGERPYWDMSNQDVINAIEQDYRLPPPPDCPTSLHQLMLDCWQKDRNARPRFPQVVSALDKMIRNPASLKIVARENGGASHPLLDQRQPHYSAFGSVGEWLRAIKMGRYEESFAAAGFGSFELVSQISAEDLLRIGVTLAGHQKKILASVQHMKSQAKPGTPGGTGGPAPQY
Procedure: Cells were plated in 24-well dishes at a density of 100,000 cells/well and grown for 24 hours prior to stimulation with appropriate compounds and ephrins for the given amounts of time. Compounds were prepared in DMSO at 500 times the final concentrations and 0.2% DMSO was used as vehicle control. Following treatment, cells were lysed directly in SDS Gel Loading Buffer and immunoblotted as described previously. […] For immunoprecipitation, 300,000 cells/well were plated in 6-well dishes and lysed in modified RIPA Buffer (20 mM Tris-HCl pH 7.4, 20 mM NaF, 150 mM NaCl, 10% glycerol, 0.1% SDS, 0.5% DCA, 2 mM EDTA, 1% Triton X-100) following treatment. Either 10 μg of ephrin-A1-Fc, or 4 mg of EphA2 mouse monoclonal antibody (Clone D7, Millipore) were used, and mouse IgG was used as a negative control for EphA2 IP. […] For this purpose, HEK 293 cell lines overexpressing EphA1, EphA2, EphA3, EphA4, and EphB3 kinases were utilized.

[2] = test system: ERK and Akt activities; assay: ERK and Akt activities in LK133A-Vec cells (EphA2 knockout); format: cell-based, mice
Procedure: Cells were plated in 24-well dishes at a density of 100,000 cells/well and grown for 24 hours prior to stimulation with appropriate compounds and ephrins for the given amounts of time. Compounds were prepared in DMSO at 500 times the final concentrations and 0.2% DMSO was used as vehicle control. Following treatment, cells were lysed directly in SDS Gel Loading Buffer and immunoblotted as described previously. Immunoprecipitation and immunofluorescence staining was performed as described. For immunoprecipitation, 300,000 cells/well were plated in 6-well dishes and lysed in modified RIPA Buffer (20 mM Tris-HCl pH 7.4, 20 mM NaF, 150 mM NaCl, 10% glycerol, 0.1% SDS, 0.5% DCA, 2 mM EDTA, 1% Triton X-100) following treatment. Either 10 μg of ephrin-A1-Fc, or […] of EphA2 mouse monoclonal antibody (Clone D7, Millipore) were used, and mouse IgG was used as a negative control for EphA2 IP.
To address this question, we utilized an immortalized liver epithelial cell line, LK133A, isolated from a hepatoma induced by DEN in EphA2 knockout mice. Retroviral vector was used to restore EphA2 expression in these cells (LK133A-A2), and cells transduced with an empty vector were used as control (LK133AVec).

[3] = test system: PC3-DAB2IP KD cells; assay: In vivo metastasis assay, orthotopic PC3-DAB2IP KD xenograft
Procedure: PC-3 cells (from ATCC) engineered to express both GFP and DAB2IP shRNA were characterized previously. Cells were suspended in serum free medium and 2,000 cells injected directly into the prostate glands of 7 week old NCr athymic nu/nu mice. Three days after injection, mice were divided into two groups, one receiving vehicle alone (5% DMSO/10% Cremophor/PBS) and another 50 mg/kg doxazosin via intraperitoneal injection daily for 10 days. Mice were sacrificed 14 days later and intact primary tumors were imaged under a UV light box with a Digital camera. Lungs were dissected into separate lobes and GFP-expressing metastases were imaged using an inverted fluorescent microscope (Leica). Metastases were enumerated in the two largest lung lobes and placed into size categories based upon their diameters, measured in number of cells (1-10 cells). Total metastatic burden was calculated in each mouse using the following equation: [burden=Σ (# of foci×focus diameter)].
We took advantage of this newly established model system to test how doxazosin can affect metastasis of prostate cancer. To this end, PC3-DAB2IP KD cells were injected orthotopically into the prostate glands of nude mice. Three days later, recipient mice were subject to systemic treatment by daily i.p. injection of either vehicle control, or 50 mg/kg doxazosin for 10 days. Since these cells also expressed green fluorescent protein (GFP), freshly dissected primary tumors could be readily visualized in a GFP light box (FIG. 7A top panels), and distal metastases to lungs and lymph nodes could be observed and quantified under a fluorescent microscope (FIG. 7A lower panels).
Next, we determined whether doxazosin treatment might impact overall survival. Nude mice orthotopically implanted with the PC3-DAP2IP KD cells were treated for 10 days with either doxazosin, or vehicle control and monitored for survival.

[4] = test system: PC-3 cells; assay: Cell rounding of PC-3 cells; format: cell-based, human; set-up: dose or concentration left out as unconfirmed
Text: As we first reported in 2000, EphA2 activation on PC-3 cells by ephrin-A1 induced rapid cell rounding, a phenomenon that is correlated with inhibition of integrin function.

[5] = test system: DU145 and PC-3 cell xenografts; conditions: previously shown, independent of α1-adrenoreceptor; cited from earlier work
[6] = test system: MDA-MB-231, A172-A2 and PC3-DAB2IP KD cells; assay: Chemotactic cell migration toward hepatocyte growth factor (HGF); format: cell-based; conditions: all three cell lines
Text: One of the well-established functions of Eph receptors is the ligand-dependent repulsive guidance of cell migration. As a ligand-mimicking agonist for EphA2, doxazosin is expected to activate EphA2 on tumor cells and repulse migrating tumor cells in vitro. […] The inhibitory effects were observed when doxazosin was presented either in the bottom chamber, or in both top and bottom chambers in the Transwell assay system. […] Therefore, doxazosin can recapitulate a key function attributed to its native ligands, i.e., negative regulation of cell migration.

[7] = 50 mg/kg i.p. daily for 10 days, versus vehicle

Compound: COc1cc2nc(N3CCN(C(=O)C4COc5ccccc5O4)CC3)nc(N)c2cc1OC (stereo not shown) [Doxazosin, 2-[4-(2,3-Dihydro-1,4-benzodioxine-2-carbonyl)piperazin-1-yl]-6,7-dimethoxyquinazolin-4-amine]
- endogenous EphB4 activation [1]: endogenous EphB4 was not activated
- effect on ERK and Akt activities in absence of EphA2 [2]: neither doxazosin nor ephrin-A1-Fc was able to inhibit ERK and Akt activities; also recorded: notable increase in ERK and Akt activation
- side effects ([3]; 50 mg/kg i.p. daily for 10 days): no notable side effects
- body weight [3, 7]: no changes in body weight
- number of lung metastases [3, 7]: significant reduction in the number of lung metastases
- primary tumor sizes [3, 7]: difference was not statistically significant
- sizes of lung metastases [3, 7]: significantly smaller
- total metastatic burden [3, 7]: even more significantly reduced
- tumor cell dissemination to local lymph nodes [3, 7]: reduced, but not to a significant extent
- overall survival ([3]; 27 days after cell implantation, treated 10 days, vehicle 30%): 70%
- cell rounding [4]: caused rounding of PC-3 cells
- subcutaneous xenograft growth [5]: moderately decrease subcutaneous growth of DU145 and PC-3 cell xenografts
- chemotactic cell migration toward HGF [6]: dose-dependent inhibition
